From patent US8138188B2, “Melanocortin type 4 receptor agonist piperidinoylpyrrolidines” (Pfizer Inc., priority 2006, dated 2012) come the findings set out here.

Data set [1] addresses T1, human MC3 receptor (Homo sapiens, UniProt P41968).
T1 construct: stably transfected with full length cDNA encoding human MC1 or MC3 receptors; expressed in transfected cells; host or cells: Chinese hamster ovary cell line (MC3; 'respectively')
Description: In vitro agonist potency (EC50) against melanocortin receptor type 3, cAMP in recombinant cell line. Format: cell-based. The conditions noted are these: cell line stably transfected with human MC3, 1 hour at 37° C. As for the experimental part:
Measurement of In Vitro Agonist Potency (EC50) of Compounds Against Melanocortin Receptors Type 1 and 3 (MC1 and MC3).
Activation of melanocortin (MC) receptors by agonists results in activation of intracellular adenylate cyclase enzymes that synthesise the second messenger signalling molecule, adenosine 3′,5′-cyclic monophosphate (cAMP). Changes in cAMP levels following treatment of recombinant MC1 and MC3 cell lines with test compound were measured and an MC1 and MC3 potency estimate (EC50) calculated as follows: […]
Human embryonic kidney (HEK) or Chinese hamster ovary cell lines stably transfected with full length cDNA encoding human MC1 or MC3 receptors, respectively, were established using standard molecular biology methods. Test compounds were dissolved in dimethyl sulfoxide (DMSO) at 4 mM. 11 point half log unit increment dilution series of test compound, typically starting at 50 uM were prepared in a buffer comprised of phosphate buffered saline (PBS), 2.5% DMSO and 0.05% pluronic F-127 surfactant. Freshly cultured cells at 80-90% confluence were harvested and re-suspended in Dulbecco's Modified Eagle's Medium (DMEM). Cells (10,000 for MC3, 20,000 for MC1) were added to the test compound dilution series in a 384 well assay plate and incubated for 1 hour at 37° C. The relative cAMP concentration in each well was then measured using a β-galactosidase enzyme fragment complementation method purchased in kit form as the Discoverx cAMP II kit from GE Healthcare/Amersham Biosciences UK. In the case of MC1,3-Isobutyl-1-methylxanthine (IBMX) at a concentration of 750 μM was included in DMEM as the cells were re-suspended for assay. […] Sigmoidal curves were fitted to plots of log10 inhibitor concentration vs percent effect using a custom made software application called SIGHTS and EC50 estimates determined by the software as the concentration of test compound giving an effect half way between the bottom and top assymptopes of the sigmoidal dose response curve. Each experiment included an EC50 determination for alpha melanocyte stimulating hormone, which was used as a standard to track assay consistency and allow fair comparison between EC50 estimates obtained in different experiments.

In data set [2] the target is T2, CYP3A4 (Homo sapiens, UniProt P08684).
T2 construct: utilizes human liver microsomes together with isoform-specific clinical drug probes; from tissue; host or cells: human liver microsomes
Description: High density drug-drug interactions (DDI) 3 μM cocktail screen in human liver microsomes. Type of data set: in vitro ADME. The conditions noted are these: 3 uM test compound, pooled human liver microsomes, probe midazolam 2 μM; read-out: % Inhibition of 3A4 metabolism at 3 uM. As to the method:
High Density Drug-Drug Interactions (DDI) 3 μM Cocktail Screen
A drug interaction is a situation in which a substance affects the activity of another drug, i.e. the effects are increased or decreased, or together they produce a new effect that neither produces on its own. Drug interactions may be the result of various processes but a relatively common one is where one drug affects the pharmacokinetics of another by inhibiting the cytochrome P450 that metabolises it. Because of the importance of these phenomena, assessment of the DDI potential for new chemical entities (NCEs) is considered important early on in the drug discovery process.
The DDI cocktail screen in human liver microsomes (HLM) is run in a fully automated fashion and the aim of the screen is to provide a single-point assessment of the DDI potential of new chemical entity (NCE; tested at 3 μM) against the 4 primary cytochrome P450 enzymes, 1A2, 2D6, 2C9 and 3A4.
The substrate cocktail approach for P450 DDI utilizes human liver microsomes together with isoform-specific clinical drug probes and permits the simultaneous measurement of the inhibition of P450 1A2, 2C9, 2D6 & 3A4 activities in a single incubation. This is run in high throughput with simultaneous detection of metabolites by LC-MS/MS. This method has been thoroughly tested and evaluated using standard compounds.
Appearance of the metabolite of each substrate is measured over time in the presence and absence of the NCE (test compound/inhibitor) at a concentration of 3 μM. The compounds are assessed for their inhibitory potential as a percentage value and interpreted using the following scheme.

T2 sequence (P08684 whole entry, canonical isoform): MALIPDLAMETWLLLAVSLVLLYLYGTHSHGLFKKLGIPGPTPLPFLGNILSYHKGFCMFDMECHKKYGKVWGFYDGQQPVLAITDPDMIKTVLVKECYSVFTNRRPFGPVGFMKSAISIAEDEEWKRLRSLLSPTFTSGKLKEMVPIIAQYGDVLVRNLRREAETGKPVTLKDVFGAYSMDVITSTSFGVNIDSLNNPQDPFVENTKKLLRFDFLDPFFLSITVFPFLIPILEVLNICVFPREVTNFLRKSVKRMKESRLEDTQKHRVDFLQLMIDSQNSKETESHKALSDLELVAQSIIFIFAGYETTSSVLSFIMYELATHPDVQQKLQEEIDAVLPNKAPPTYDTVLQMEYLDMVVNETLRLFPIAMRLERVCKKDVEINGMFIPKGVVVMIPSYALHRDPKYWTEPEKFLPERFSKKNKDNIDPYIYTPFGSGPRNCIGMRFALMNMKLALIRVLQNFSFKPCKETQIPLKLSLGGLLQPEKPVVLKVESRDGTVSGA
T1 sequence (P41968 whole entry): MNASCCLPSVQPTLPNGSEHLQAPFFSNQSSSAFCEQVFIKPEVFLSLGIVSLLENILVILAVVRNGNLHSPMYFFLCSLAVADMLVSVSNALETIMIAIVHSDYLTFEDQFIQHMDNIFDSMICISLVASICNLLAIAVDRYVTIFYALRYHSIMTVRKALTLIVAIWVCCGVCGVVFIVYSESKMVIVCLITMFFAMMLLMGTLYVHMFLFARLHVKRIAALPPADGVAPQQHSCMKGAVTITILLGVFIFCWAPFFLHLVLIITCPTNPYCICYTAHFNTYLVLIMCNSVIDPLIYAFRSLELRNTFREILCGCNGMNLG

For orientation: EC50 means the concentration giving half of the maximal effect. By inhibition is commonly meant the share of the control response that was lost under treatment. On to `COc1ccc([C@@H]2CN(c3ccc(C#N)nn3)C[C@H]2C(=O)N2C[C@@H](C)[C@](O)(c3ccc(F)cc3)[C@@H](C)C2)nc1` [Example 43], for which the EC50 in data set [1] came out at 1590 nM. In addition, the inhibition at 3 μM in data set [2] stood at 44%.

As to `C[C@@H]1CN(C(=O)[C@@H]2CN(c3ccc(=O)n(C)n3)C[C@H]2c2ccc(Cl)cn2)C[C@H](C)[C@@]1(O)C1CCCCC1` [Example 17], the EC50 in data set [1] worked out at 54.9 nM. Moreover, in data set [2], the inhibition at 3 μM came to 35%.

On to `C[C@@H]1CN(C(=O)[C@@H]2CN(c3ccc(=O)[nH]n3)C[C@H]2c2ccc(F)cn2)C[C@H](C)[C@@]1(O)c1ccc(Cl)cc1` [Example 6, 6-[(3S,4S)-3-{[(3R,4R,5S)-4-(4-chlorophenyl)-4-hydroxy-3,5-dimethylpiperidin-1-yl]carbonyl}-4-(5-fluoropyridin-2-yl)pyrrolidin-1-yl]pyridazin-3(2H)-one], for which the EC50 in data set [1] was 1460 nM. For the same compound, the inhibition at 3 μM in data set [2] was determined as 32%.

For `C[C@@H]1CN(C(=O)[C@@H]2CN(c3ccc(C#N)nn3)C[C@H]2c2ccc(F)cn2)C[C@H](C)[C@@]1(O)c1ccc(Cl)cc1` [Example 32], the EC50 in data set [1] stood at 76.6 nM. For the same compound, in data set [2], the inhibition at 3 μM came to 31%.

Consider `C[C@@H]1CN(C(=O)[C@@H]2CN(c3cccnn3)C[C@H]2c2ccc(Cl)cn2)C[C@H](C)[C@@]1(O)c1ccccn1` [Example 9, (3R,4R,5S)-1-{[(3S,4S)-4-(5-chloropyridin-2-yl)-1-pyridazin-3-ylpyrrolidin-3-yl]carbonyl}-3,5-dimethyl-4-pyridin-2-ylpiperidin-4-ol], for which the EC50 in data set [1] came out at 520 nM. In data set [2], the inhibition at 3 μM worked out at 68%.

Regarding `C[C@@H]1CN(C(=O)[C@@H]2CN(c3cncc(F)c3)C[C@H]2c2ccc(Cl)cn2)C[C@H](C)[C@@]1(O)c1ccccn1` [Example 8, (3R,4R,5S)-1-{[(3S,4S)-4-(5-chloropyridin-2-yl)-1-(5-fluoropyridin-3-yl)pyrrolidin-3-yl]carbonyl}-3,5-dimethyl-4-pyridin-2-ylpiperidin-4-ol], in data set [1], the EC50 stood at 1090 nM. Besides, in data set [2], the inhibition at 3 μM is 94%.

Take `COc1ccc(N2CC(C(=O)N3CC(C)C(O)(C4CC4)C(C)C3)C(c3ccc(Cl)cn3)C2)nn1` (stereo not drawn) [Example 26]: in data set [1], the EC50 came out at 4210 nM. In data set [2], the inhibition at 3 μM was found to be 61%.

For the compound `CC1CN(C(=O)C2CN(c3cncc(F)c3)CC2c2ccc(Cl)cn2)CC(C)C1(O)C1CC1` (stereo not drawn) [Example 24], in data set [1], the EC50 was 2510 nM. The inhibition at 3 μM in data set [2] came to 87%.

As to `C[C@@H]1CN(C(=O)[C@@H]2CN(c3ccc(Cl)nn3)C[C@H]2c2ccc(F)cn2)C[C@H](C)[C@@]1(O)c1ccccc1` [Example 35], the EC50 in data set [1] came out at 878 nM. In data set [2], the inhibition at 3 μM came to 46%.

Turning to `CC1CN(C(=O)C2CN(c3ccc(=O)[nH]n3)CC2c2ccc(Cl)cn2)CC(C)C1(O)c1ccccc1` (stereo not drawn) [Example 27], the EC50 in data set [1] was 390 nM. In data set [2], the inhibition at 3 μM came out at 64%.

Regarding `CC1CN(C(=O)C2CN(c3cncc(F)c3)CC2c2ccc(Cl)cn2)CC(C)C1(O)c1ccc(F)cc1` (stereo not drawn) [Example 25], in data set [1], the EC50 is 189 nM. Besides, in data set [2], the inhibition at 3 μM is 16%.

On to `CC1CN(C(=O)C2CN(c3ccc(=O)n(C)n3)CC2c2ccc(Cl)cn2)CC(C)C1(O)c1ccc(F)c(F)c1` (stereo not drawn) [Example 19], for which the EC50 in data set [1] worked out at 425 nM. Also, the inhibition at 3 μM in data set [2] was found to be 50%.

For `C[C@@H]1CN(C(=O)[C@@H]2CN(c3ccc(Cl)nn3)C[C@H]2c2ccc(F)cn2)C[C@H](C)[C@@]1(O)c1ccc(Cl)cc1` [Example 5, (3R,4R,5S)-4-(4-chlorophenyl)-1-{[(3S,4S)-1-(6-chloropyridazin-3-yl)-4-(5-fluoropyridin-2-yl)pyrrolidin-3-yl]carbonyl}-3,5-dimethylpiperidin-4-ol], the EC50 in data set [1] was determined as 203 nM. Besides, the inhibition at 3 μM in data set [2] worked out at 34%.

With `C[C@@H]1CN(C(=O)[C@@H]2CN(c3ccc(=O)n(C)n3)C[C@H]2c2ccc(Cl)cn2)C[C@H](C)[C@@]1(O)c1ccccn1` [Example 22], the EC50 in data set [1] was found to be 1050 nM. Moreover, the inhibition at 3 μM in data set [2] worked out at 54%.

On to `CC1CN(C(=O)C2CN(c3ccc(=O)[nH]n3)CC2c2ccc(F)cn2)CC(C)C1(O)c1ccccc1` (stereo not drawn) [Example 37], for which the EC50 in data set [1] was 325 nM. In addition, the inhibition at 3 μM in data set [2] was 45%.

Regarding `COc1ccc(C2CN(c3ccc(=O)[nH]n3)CC2C(=O)N2CC(C)C(O)(c3ccc(F)cc3)C(C)C2)nc1` (stereo not drawn) [Example 42], the EC50 in data set [1] was above 20300 nM. For the same compound, in data set [2], the inhibition at 3 μM was determined as 59%.

As to `COc1ccc(C2(O)C(C)CN(C(=O)C3CN(c4ccc(=O)n(C)n4)CC3c3ccc(Cl)cn3)CC2C)cc1` (stereo not drawn) [Example 20], the half-maximal effective concentration (EC50) in data set [1] is 1120 nM. Besides, in data set [2], the inhibition at 3 μM stood at 35%.

On to `C[C@@H]1CN(C(=O)[C@@H]2CN(c3ccc(=O)n(C)n3)C[C@H]2c2ccc(Cl)cn2)C[C@H](C)[C@@]1(O)C1CC1` [Example 18], for which the EC50 in data set [1] was above 8520 nM. The inhibition at 3 μM in data set [2] came to 34%.

For `C[C@@H]1CN(C(=O)[C@@H]2CN(c3ccc(C#N)cn3)C[C@H]2c2ccc(Cl)cn2)C[C@H](C)[C@@]1(O)c1ccc(F)cc1` [Example 1, 6-[(3S,4S)-3-(5-Chloropyridin-2-yl)-4-{[(3R,4R,5S)-4-(4-fluorophenyl)-4-hydroxy-3,5-dimethylpiperidin-1-yl]carbonyl}pyrrolidin-1-yl]nicotinonitrile], the EC50 in data set [1] was determined as 43.9 nM. Moreover, in data set [2], the inhibition at 3 μM came to 54%.

In the case of `CC1CN(C(=O)C2CN(c3ccc(C#N)cn3)CC2c2ccc(C#N)cn2)CC(C)C1(O)c1ccc(F)cc1` (stereo not drawn) [Example 45], in data set [1], the EC50 worked out at 66.1 nM. Further, the inhibition at 3 μM in data set [2] turned out to be 69%.

`C[C@@H]1CN(C(=O)[C@@H]2CN(c3ccc(C#N)nn3)C[C@H]2c2ccc(C#N)cn2)C[C@H](C)[C@@]1(O)c1ccc(F)cc1` [Example 46]: in data set [1], the EC50 stood at 50.8 nM. The inhibition at 3 μM in data set [2] turned out to be 74%.

With `COc1ccc(N2C[C@@H](C(=O)N3C[C@@H](C)[C@](O)(c4ccc(F)cc4)[C@@H](C)C3)[C@H](c3ccc(Cl)cn3)C2)nn1` [Example 4, (3R,4R,5S)-1-{[(3S,4S)-4-(5-chloropyridin-2-yl)-1-(6-methoxypyridazin-3-yl)pyrrolidin-3-yl]carbonyl}-4-(4-fluorophenyl)-3,5-dimethylpiperidin-4-ol], the EC50 in data set [1] is 55.9 nM. For the same compound, the inhibition at 3 μM in data set [2] worked out at 38%.

For `CC1CN(C(=O)C2CN(c3ccc(=O)n(C)n3)CC2c2ccc(Cl)cn2)CC(C)C1(O)c1ccccc1` (stereo not drawn) [Example 21], the EC50 in data set [1] was found to be 283 nM. For the same compound, the inhibition at 3 μM in data set [2] was 25%.

On to `COc1ccc(C2CN(c3ccc(C#N)nn3)CC2C(=O)N2CC(C)C(O)(c3ccc(F)cc3)C(C)C2)cn1` (stereo not drawn) [Example 16], for which the EC50 in data set [1] came to 323 nM. The inhibition at 3 μM in data set [2] was found to be 83%.

As to `CC1CN(C(=O)C2CN(c3ccc(=O)n(C)n3)CC2c2ccc(F)cn2)CC(C)C1(O)c1ccc(F)cc1` (stereo not drawn) [Example 40], in data set [1], the EC50 was 580 nM. In data set [2], the inhibition at 3 μM was found to be 64%.

Regarding `CC1CN(C(=O)C2CN(c3ccc(C#N)nn3)CC2c2ccc(Cl)cn2)CC(C)C1(O)c1ccccn1` (stereo not drawn) [Example 30], the EC50 in data set [1] was 61.5 nM. For the same compound, the inhibition at 3 μM in data set [2] worked out at 38%.

As for `COc1ccc([C@@H]2CN(c3ccc(=O)[nH]n3)C[C@H]2C(=O)N2C[C@@H](C)[C@](O)(c3ccc(Cl)cn3)[C@@H](C)C2)nc1` [Example 41], the EC50 in data set [1] was above 33300 nM. The inhibition at 3 μM in data set [2] came to 52%.
